{"source": "paper PMC5526570", "about": "“In vitro and in vivo anti-inflammatory active copper(II)-lawsone complexes” (PLoS ONE, 2017)", "key": {"NF-κB": {"system": "NF-κB", "assay": "NF-κB activity, secreted alkaline phosphatase reporter in THP1-XBlue-MD2-CD14 cells", "type": "cell-based, human", "settings": "1 h pretreatment, 24 h; for decrease of NF-κB activity stimulated by LPS: LPS 1 μg/mL; for decrease of NF-κB activation induced by Pam3CSK4: Pam3CSK4 100 ng/mL; for decrease of NF-κB activity stimulated by TNF-α: TNF-α 10 ng/mL", "procedure": "The THP-1 human monocytic leukemia cell line was obtained from the European Collection of Cell Cultures (ECACC, Salisbury, UK) and THP1-XBlue™-MD2-CD14 cells were purchased from Invivogen (San Diego, USA). The cells were cultivated at 37°C in the RPMI 1640 medium supplemented with 2 mM L-glutamine, 10% FBS, 100 U/mL penicillin, and 100 μg/mL streptomycin in a humidified atmosphere containing 5% CO2. The culture was split twice a week when the cells had reached the concentration of 5–7×10^5 cells/mL. The cell count and viability were determined following staining with erythrosin B. The cells were counted manually using a hemocytometer and a light microscope.\nOne hundred microliters of the stabilized THP-1 cells (5th-20th passage) were split into 96-well plates to afford the concentration of 5×10^5 cells/mL, and differentiation into macrophages was induced by the addition of phorbol myristate acetate (PMA), as described previously. THP1-XBlue™-MD2-CD14 cells were used without any differentiation due to their stabile expression of MD2 and CD14 co-receptors.\nTHP1-XBlue™-MD2-CD14 cells were transferred into a serum-free medium at the concentration of 5×10^5 cells/mL. The floated cells were pretreated with the tested compounds (i.e. complexes 1–7, [Cu(Law)2(H2O)2]·0.5H2O, and Hlaw, respectively) and stimulated either by LPS (1 μg/mL), or by the addition of human recombinant TNF-α (10 ng/mL; Invivogen), or by Pam3CSK4 (100 ng/mL; Invivogen), a synthetic triacylated lipoprotein and selective Toll-like receptor 1/2 agonist. After 24 h of the incubation, 20 μL of the cultivation medium was mixed with 180 μL of Quanti-Blue medium and incubated according to the manufacturer’s instructions at 37°C for 2 h. The activity of released alkaline phosphatase, directly proportional to the NF-κB activity, was quantified from the difference in absorbance at 655 nm against the untreated control."}, "[1]": {"system": "carrageenan-induced hind paw edema", "assay": "Carrageenan-induced hind paw edema, plethysmometry", "type": "in vivo, rat", "settings": "rats, i.p., dose corresponding to 40 mmol Cu/kg (ca. 20 mg/kg), 30 min before carrageenan, up to 6 h", "procedure": "Wistar—SPF (6–8 weeks male) rats were obtained from the AnLab, Ltd., Prague. The animals were kept in plexiglass cages at the constant temperature of 22±1°C, and relative humidity of 55±5% for at least 1 week before the experiment. They were given food and water ad libitum. After a one-week adaptation period, male Wistar-SPF rats (200–250 g) were randomly assigned into ten groups (n = 7) of animals in the study. The first, control group, received 10% DMF (v/v in water, intraperitoneal; i.p.). The next eight groups were pretreated with complexes 1–7 and [Cu(Law)2(H2O)2]·0.5H2O (at the dose corresponding to […] Cu/kg; ca. 20 mg/kg) and involved into the carrageenan-treatment. The last group was treated with a non-steroidal anti-inflammatory drug Indomethacin (5 mg/kg), which served as a positive control (Indomethacin + carrageenan).\nThe carrageenan-induced hind paw edema model was used for the determination of the anti-inflammatory activity. […] The paw volume was measured immediately after the carrageenan injection and during the next 6 h after the administration of the edematogenic agent using a plethysmometer (model 7159, Ugo Basile, Varese, Italy). The degree of swelling induced was evaluated as the percentage of change in the volume of the right hind paw after the carrageenan treatment from the volume of the right hind paw before the carrageenan treatment."}, "[2]": {"system": "PMN infiltration of hind paw tissue", "assay": "Ex vivo histological evaluation of hind paw tissue (hematoxylin/eosin)", "type": "in vivo, rat", "settings": "rats, i.p., tissue after 6 h", "source_text": "All the animals were sacrificed by cervical dislocation, and immediately after that, the affected hind paws were separated and underwent the process of dehydration and fixation, and were embedded into paraffin blocks by means of standard protocols. The histopathological changes, like infiltration of different skin elements and deeper laying tissues by the polymorphonuclear white blood cells (dominantly neutrophils and lymphocytes) stained by the standard hematoxylin/eosin staining, were evaluated."}, "TNF-α": {"system": "TNF-α", "assay": "TNF-α secretion in LPS-stimulated THP-1 macrophages (ELISA)", "type": "cell-based, human", "settings": "100 nM, 1 h pretreatment, LPS 1 μg/mL, 24 h", "procedure": "One hundred microliters of the stabilized THP-1 cells (5th-20th passage) were split into 96-well plates to afford the concentration of 5×10^5 cells/mL, and differentiation into macrophages was induced by the addition of phorbol myristate acetate (PMA), as described previously. […] Whereas the complexes were dissolved in PBS, lawsone was dissolved in DMSO. With respect to the results of cytotoxicity assay, the concentration of 100 nM should not affect the viability of the target cells in any way. For comparative purposes, a conventional drug prednisone was used at the standard dose of 1 μM dissolved in DMSO. Then, the DMSO was added to the rest of the wells. […] Vehicle-treated cells contained a vehicle (0.1% DMSO) only. The TNF-α secretion in the pretreated differentiated THP-1 macrophages was induced by the addition of 1 μg/mL LPS dissolved in sterile water. The basal cytokine expression level was determined in the control cells without the LPS stimulation. LPS triggers an inflammatory response through binding to toll-like receptor 4 (TLR-4) and subsequently activates the NF-κB signaling pathway. The cultivation medium was aspirated 24 h after the LPS addition and the cell residue was removed by centrifugation. The concentration of the secreted TNF-α was determined using the Human TNF-α Instant ELISA kit."}, "[3]": {"assay": "In vitro cytotoxicity, WST-1 assay, 24 h", "type": "cell-based", "settings": "human, THP-1 monocytic leukemia cells", "experimental": "The final concentration of the solvent in the culture medium was 0.1% (v/v). The cells were incubated at 37°C with 5% CO2 for 24 h. After the incubation, the cytotoxicity was determined by the Cell Proliferation Reagent WST-1 kit according to the manufacturer´s instructions."}, "[4]": {"settings": "100 nM, vs vehicle-treated cells"}}, "note": "Entries after “also recorded” stand apart in the source; their conditions may differ."}
{"molecule": "O.O=C1C=C([O-])C(=O)c2ccccc21.O=C1C=C([O-])C(=O)c2ccccc21.[Cu+2].c1ccncc1", "note": "[compound 1, [Cu(Law)2(H2O)(py)]]", "values": [{"measurement": "decrease of NF-κB activity stimulated by LPS", "setting": "NF-κB; [4]", "value": "did not affect"}, {"measurement": "decrease of NF-κB activation induced by Pam3CSK4", "setting": "NF-κB; 100 nM", "value": "no noticeable effect"}, {"measurement": "antiedematous activity (hind paw swelling)", "setting": "[1]", "value": "diminish completely the swelling of the hind paw; also recorded: most active"}, {"measurement": "PMN infiltration / inflammatory reaction in hind paw tissue", "setting": "[2]; (ca. 20 mg/kg)", "value": "mainly scarce and diffuse"}]}
{"molecule": "O=C1C=C([O-])C(=O)c2ccccc21.O=C1C=C([O-])C(=O)c2ccccc21.[Cu+2].c1c[nH]cn1.c1c[nH]cn1", "note": "[compound 2, [Cu(Law)2(Im)2]]", "values": [{"measurement": "decrease of NF-κB activity stimulated by LPS", "setting": "NF-κB; [4]", "value": 10, "unit": "%"}, {"measurement": "decrease of NF-κB activation induced by Pam3CSK4", "setting": "NF-κB; 100 nM", "value": "no noticeable effect"}]}
{"molecule": "COc1ccc2c(c1)c(CC(=O)O)c(C)n2C(=O)c1ccc(Cl)cc1", "note": "[indomethacin, reference compound]", "values": [{"measurement": "PMN infiltration / inflammatory reaction in hind paw tissue", "setting": "[2]; 5 mg/kg", "value": "mainly scarce and diffuse"}]}
{"molecule": "O=C1C=C(O)C(=O)c2ccccc21", "note": "[lawsone, 2-hydroxy-1,4-naphthoquinone]", "values": [{"measurement": "decrease of NF-κB activity stimulated by LPS", "setting": "NF-κB; [4]", "value": "19–24%"}, {"measurement": "decrease of NF-κB activity stimulated by TNF-α", "setting": "NF-κB; 100 nM", "value": 32, "unit": "%"}, {"measurement": "decrease of TNF-α expression/secretion in LPS-stimulated cells", "setting": "TNF-α", "value": 28, "unit": "%"}, {"measurement": "viability at 24 h, 10 µM", "setting": "[3]", "value": "~80", "unit": "%"}]}
{"molecule": "C[C@]12C=CC(=O)C=C1CC[C@@H]1[C@@H]2C(=O)C[C@@]2(C)[C@H]1CC[C@]2(O)C(=O)CO", "note": "[prednisone, reference compound]", "values": [{"measurement": "decrease of NF-κB activity stimulated by LPS", "setting": "NF-κB; 1 μM", "value": 26, "unit": "%"}, {"measurement": "decrease of NF-κB activity stimulated by TNF-α", "setting": "NF-κB; 1 μM", "value": 37, "unit": "%"}]}
{"molecule": "[Cu(Law)2(3,5diMePz)2]·0.5H2O [compound 7]", "values": [{"measurement": "decrease of NF-κB activity stimulated by LPS", "setting": "NF-κB; [4]", "value": "19–24%"}, {"measurement": "antiedematous activity (hind paw swelling)", "setting": "[1]", "value": "least active"}, {"measurement": "PMN infiltration / inflammatory reaction in hind paw tissue", "setting": "[2]; (ca. 20 mg/kg)", "value": "massive presence of PMN cells"}]}
{"molecule": "[Cu(Law)2(3-OHpy)2] [compound 6]", "values": [{"measurement": "decrease of NF-κB activity stimulated by LPS", "setting": "NF-κB; [4]", "value": 12, "unit": "%"}]}
{"molecule": "[Cu(Law)2(3-apy)2]·0.5H2O [compound 4]", "values": [{"measurement": "decrease of NF-κB activity stimulated by LPS", "setting": "NF-κB; [4]", "value": "19–24%"}]}
{"molecule": "[Cu(Law)2(H2O)(2-apy)]·0.5H2O [compound 3]", "values": [{"measurement": "decrease of NF-κB activity stimulated by LPS", "setting": "NF-κB; [4]", "value": "19–24%"}, {"measurement": "decrease of NF-κB activation induced by Pam3CSK4", "setting": "NF-κB; 100 nM", "value": "most efficient"}, {"measurement": "decrease of TNF-α expression/secretion in LPS-stimulated cells", "setting": "TNF-α", "value": "greatest potential"}]}
